Results reported in the NIST ThermoML archive (doi:10.1021/je301371p).
Numbers after ± are expanded uncertainties.

Test: xn = mol fraction of the nth substance listed
Conditions: 101 kPa, Liquid; for viscosity: Oscillating disk viscometry; for mass density: Vibrating tube method

O [water] + CCN(CC)CCO
x2 = 0
Conditions	mass density [kg/m3]	viscosity [mPa·s]
298.15 K	–	0.89 ± 0.11
303.15 K	–	0.8 ± 0.1
313.15 K	–	0.65 ± 0.08
323.15 K	–	0.55 ± 0.07
333.15 K	983.2 ± 0.29	0.48 ± 0.06

NCCCCN [1,4-butanediamine] + O
Conditions	mass density, 298.15 K [kg/m3]	mass density, 313.15 K [kg/m3]	mass density, 333.15 K [kg/m3]	viscosity, 303.15 K [mPa·s]	viscosity, 313.15 K [mPa·s]	viscosity, 323.15 K [mPa·s]	viscosity, 333.15 K [mPa·s]
x1 = 0.01952	992.346 ± 0.29	986.497 ± 0.29	976.433 ± 0.29	1.23 ± 0.15	0.98 ± 0.12	0.8 ± 0.1	0.63 ± 0.08
x1 = 0.04244	988.532 ± 0.3	981.237 ± 0.3	969.713 ± 0.3	1.83 ± 0.22	1.39 ± 0.17	1.1 ± 0.13	0.9 ± 0.11
x1 = 0.06965	985.772 ± 0.31	976.817 ± 0.31	963.518 ± 0.3	2.51 ± 0.3	1.85 ± 0.22	1.4 ± 0.17	1.06 ± 0.13
x1 = 0.1025	982.813 ± 0.32	972.197 ± 0.32	957.323 ± 0.31	3.65 ± 0.44	2.57 ± 0.31	1.86 ± 0.22	1.37 ± 0.17
x1 = 0.1434	978.544 ± 0.33	966.791 ± 0.33	950.667 ± 0.33	4.87 ± 0.59	3.29 ± 0.4	2.29 ± 0.28	1.62 ± 0.2

O [water] + NCCCCN
x2 = 0
Conditions	mass density [kg/m3]	viscosity [mPa·s]
298.15 K	–	0.89 ± 0.11
303.15 K	–	0.8 ± 0.1
313.15 K	–	0.65 ± 0.08
323.15 K	–	0.55 ± 0.07
333.15 K	983.2 ± 0.29	0.48 ± 0.06

CCN(CC)CCO [(diethylamino)ethanol] + O
Conditions	mass density, 298.15 K [kg/m3]	mass density, 313.15 K [kg/m3]	mass density, 333.15 K [kg/m3]	viscosity, 298.15 K [mPa·s]	viscosity, 303.15 K [mPa·s]	viscosity, 313.15 K [mPa·s]	viscosity, 323.15 K [mPa·s]	viscosity, 333.15 K [mPa·s]
x1 = 0.02012	993.744 ± 0.29	987.552 ± 0.29	976.86 ± 0.29	2.16 ± 0.26	1.4 ± 0.17	1.12 ± 0.13	0.94 ± 0.11	0.75 ± 0.09
x1 = 0.04547	990.151 ± 0.29	981.577 ± 0.29	968.366 ± 0.29	3.62 ± 0.44	2.34 ± 0.28	1.66 ± 0.2	1.32 ± 0.16	1.03 ± 0.12
x1 = 0.07875	983.322 ± 0.29	972.648 ± 0.29	957.191 ± 0.29	–	3.61 ± 0.44	2.42 ± 0.29	1.72 ± 0.21	1.24 ± 0.15
x1 = 0.1252	971.858 ± 0.29	959.656 ± 0.29	942.334 ± 0.28	8 ± 0.97	5.75 ± 0.69	3.76 ± 0.45	2.6 ± 0.31	1.87 ± 0.23
x1 = 0.1933	961.569 ± 0.29	948.632 ± 0.29	930.379 ± 0.29	11.61 ± 1.4	8.05 ± 0.97	5.27 ± 0.63	3.69 ± 0.44	2.53 ± 0.3
